This data set relates to CCRIS mutagenicity, Ames/micronucleus/aberration tests. As to the kind of experiment: CCRIS mutagenicity studies.
[1] abbreviates: Test System: AMES SALMONELLA TYPHIMURIUM, Strain/Indicator: TA98, Metabolic Activation: NONE, Method: PREINCUBATION
[2] abbreviates: Test System: AMES SALMONELLA TYPHIMURIUM, Strain/Indicator: TA100, Metabolic Activation: NONE, Method: PREINCUBATION
Setting [3] is: Test System: AMES SALMONELLA TYPHIMURIUM, Strain/Indicator: TA1535, Metabolic Activation: NONE, Method: PREINCUBATION
[4] abbreviates: Test System: AMES SALMONELLA TYPHIMURIUM, Strain/Indicator: TA1537, Metabolic Activation: NONE, Method: PREINCUBATION

Active and inactive are the calls of the source. How the calls were made is not given here.

For the compound `CC(=O)/C=C/C1=C(C)CCCC1(C)C`, the mutagenic call runs as follows: (Test System: AMES SALMONELLA TYPHIMURIUM, Strain/Indicator: TA98, Metabolic Activation: HAMSTER, LIVER, S-9, AROCLOR 1254 (10%), Method: PREINCUBATION) “inactive; negative”; under setting [1], “inactive; negative”; (Test System: AMES SALMONELLA TYPHIMURIUM, Strain/Indicator: TA98, Metabolic Activation: RAT, LIVER, S-9, AROCLOR 1254 (10%), Method: PREINCUBATION) “inactive; negative”; (Test System: AMES SALMONELLA TYPHIMURIUM, Strain/Indicator: TA100, Metabolic Activation: HAMSTER, LIVER, S-9, AROCLOR 1254 (10%), Method: PREINCUBATION) “inactive; negative”; under setting [2], “inactive; negative”; (Test System: AMES SALMONELLA TYPHIMURIUM, Strain/Indicator: TA100, Metabolic Activation: RAT, LIVER, S-9, AROCLOR 1254 (10%), Method: PREINCUBATION) “inactive; negative”. The mutagenic call is, setting by setting: (Test System: AMES SALMONELLA TYPHIMURIUM, Strain/Indicator: TA1535, Metabolic Activation: HAMSTER, LIVER, S-9, AROCLOR 1254 (10%), Method: PREINCUBATION) “inactive; negative”; under setting [3], “inactive; negative”; (Test System: AMES SALMONELLA TYPHIMURIUM, Strain/Indicator: TA1535, Metabolic Activation: RAT, LIVER, S-9, AROCLOR 1254 (10%), Method: PREINCUBATION) “inactive; negative”; (Test System: AMES SALMONELLA TYPHIMURIUM, Strain/Indicator: TA1537, Metabolic Activation: HAMSTER, LIVER, S-9, AROCLOR 1254 (10%), Method: PREINCUBATION) “inactive; negative”; under setting [4], “inactive; negative”; (Test System: AMES SALMONELLA TYPHIMURIUM, Strain/Indicator: TA1537, Metabolic Activation: RAT, LIVER, S-9, AROCLOR 1254 (10%), Method: PREINCUBATION) “inactive; negative”. For the same compound, the mutagenic call is “inactive; negative” (Test System: Ames Salmonella typhimurium, Strain/Indicator: TA97a, Metabolic Activation: None, Method: Preincubation); “inactive; negative” (Test System: Ames Salmonella typhimurium, Strain/Indicator: TA97a, Metabolic Activation: None, Method: Standard plate); “inactive; negative” (Test System: Ames Salmonella typhimurium, Strain/Indicator: TA97a, Metabolic Activation: Rat, Liver, S-9, Aroclor 1254, Method: Preincubation); “inactive; negative” (Test System: Ames Salmonella typhimurium, Strain/Indicator: TA97a, Metabolic Activation: Rat, Liver, S-9, Aroclor 1254, Method: Standard plate); “inactive; negative” (Test System: Ames Salmonella typhimurium, Strain/Indicator: TA98, Metabolic Activation: None, Method: Preincubation); “inactive; negative” (Test System: Ames Salmonella typhimurium, Strain/Indicator: TA98, Metabolic Activation: None, Method: Standard plate). The mutagenic call is, setting by setting: (Test System: Ames Salmonella typhimurium, Strain/Indicator: TA98, Metabolic Activation: Rat, Liver, S-9, Aroclor 1254, Method: Preincubation) “inactive; negative”; (Test System: Ames Salmonella typhimurium, Strain/Indicator: TA98, Metabolic Activation: Rat, Liver, S-9, Aroclor 1254, Method: Standard plate) “inactive; negative”; (Test System: Ames Salmonella typhimurium, Strain/Indicator: TA100, Metabolic Activation: None, Method: Preincubation) “inactive; negative”; (Test System: Ames Salmonella typhimurium, Strain/Indicator: TA100, Metabolic Activation: None, Method: Standard plate) “inactive; negative”; (Test System: Ames Salmonella typhimurium, Strain/Indicator: TA100, Metabolic Activation: Rat, Liver, S-9, Aroclor 1254, Method: Preincubation) “inactive; negative”; (Test System: Ames Salmonella typhimurium, Strain/Indicator: TA100, Metabolic Activation: Rat, Liver, S-9, Aroclor 1254, Method: Standard plate) “inactive; negative”. Besides, the mutagenic call (Test System: Ames Salmonella typhimurium, Strain/Indicator: TA1535, Metabolic Activation: None, Method: Preincubation) was “inactive; negative”; the mutagenic call (Test System: Ames Salmonella typhimurium, Strain/Indicator: TA1535, Metabolic Activation: None, Method: Standard plate) was “inactive; negative”; the mutagenic call (Test System: Ames Salmonella typhimurium, Strain/Indicator: TA1535, Metabolic Activation: Rat, Liver, S-9, Aroclor 1254, Method: Preincubation) was “inactive; negative”; the mutagenic call (Test System: Ames Salmonella typhimurium, Strain/Indicator: TA1535, Metabolic Activation: Rat, Liver, S-9, Aroclor 1254, Method: Standard plate) is “inactive; negative”.

`Cc1ccc2cc3ccc4ccccc4c3cc2c1`: the mutagenic call is “active; positive” (Test System: AMES SALMONELLA TYPHIMURIUM, Strain/Indicator: TA100, Metabolic Activation: RAT, INTACT HEPATOCYTES, AROCLOR 1254, Method: PREINCUBATION); “active; positive” (Test System: AMES SALMONELLA TYPHIMURIUM, Strain/Indicator: TA100, Metabolic Activation: RAT, NADPH-FORTIFIED HOMOGENIZED HEPATOCYTES, AROCLOR 1254, Method: PREINCUBATION); “active; positive” (Test System: AMES SALMONELLA TYPHIMURIUM, Strain/Indicator: TA100, Metabolic Activation: RAT, SONICATED HEPATOCYTES, AROCLOR 1254, Method: PREINCUBATION).

On to `CC/C=C\CC/C=C/C=O`, for which the mutagenic call was “inactive; negative” under setting [2]; “inactive; negative” (Test System: AMES SALMONELLA TYPHIMURIUM, Strain/Indicator: TA100, Metabolic Activation: NONE, Method: PREINCUBATION (THREEFOLD CELL DENSITY)); “inactive; negative” (Test System: AMES SALMONELLA TYPHIMURIUM, Strain/Indicator: TA100, Metabolic Activation: RAT, LIVER, S-9, AROCLOR 1254, Method: PREINCUBATION (THREEFOLD CELL DENSITY)).

As for `C=C1C[C@@]23CC[C@H]4[C@@](C)(CCC[C@@]4(C)C(=O)O)[C@@H]2CC[C@]1(O[C@@H]1O[C@H](CO)[C@@H](O)[C@H](O)[C@H]1O)C3`, the mutagenic call (Test System: AMES SALMONELLA TYPHIMURIUM, Strain/Indicator: TM677, Metabolic Activation: RAT, LIVER, S-9, AROCLOR 1254, Method: PREINCUBATION) is “active; positive”.

As to `Cc1cnc2c(n1)c(C)c(C)c1c2nc(N)n1C`, under “Test System: AMES SALMONELLA TYPHIMURIUM, Strain/Indicator: TA98, Metabolic Activation: RAT, LIVER, S-9, AROCLOR 1254, Method: STANDARD PLATE”, the mutagenic call is “active; positive”.

`O=[N+]([O-])c1ccccc1CO`: the mutagenic call reads like this: under setting [1], “inactive; negative”; under setting [2], “inactive; negative”; (Test System: AMES SALMONELLA TYPHIMURIUM, Strain/Indicator: TA100, Metabolic Activation: RAT, LIVER, S-9, AROCLOR 1254, Method: PREINCUBATION) “inactive; negative”.

In the case of `C1COCCN1`, the mutagenic call under setting [1] is “inactive; negative”; the mutagenic call (Test System: AMES SALMONELLA TYPHIMURIUM, Strain/Indicator: TA98, Metabolic Activation: RAT LIVER S-9, PHENOBARBITAL AND BETA-NAPHTHOFLAVONE, Method: PREINCUBATION) was “inactive; negative”; the mutagenic call (Test System: AMES SALMONELLA TYPHIMURIUM, Strain/Indicator: TA98, Metabolic Activation: RAT, LIVER, S-9, PCB, Method: PREINCUBATION) was “inactive; negative”; the mutagenic call under setting [2] is “inactive; negative”; the mutagenic call (Test System: AMES SALMONELLA TYPHIMURIUM, Strain/Indicator: TA100, Metabolic Activation: RAT LIVER S-9, PHENOBARBITAL AND BETA-NAPHTHOFLAVONE, Method: PREINCUBATION) is “inactive; negative”; the mutagenic call (Test System: AMES SALMONELLA TYPHIMURIUM, Strain/Indicator: TA100, Metabolic Activation: RAT, LIVER, S-9, PCB, Method: PREINCUBATION) is “inactive; negative”. Also, the mutagenic call by setting is: under setting [3], “inactive; negative”; (Test System: AMES SALMONELLA TYPHIMURIUM, Strain/Indicator: TA1535, Metabolic Activation: RAT LIVER S-9, PHENOBARBITAL AND BETA-NAPHTHOFLAVONE, Method: PREINCUBATION) “inactive; negative”; under setting [4], “inactive; negative”; (Test System: AMES SALMONELLA TYPHIMURIUM, Strain/Indicator: TA1537, Metabolic Activation: RAT LIVER S-9, PHENOBARBITAL AND BETA-NAPHTHOFLAVONE, Method: PREINCUBATION) “inactive; negative”; (Test System: E.COLI, Strain/Indicator: WP2UVRA, Metabolic Activation: NONE, Method: PREINCUBATION) “inactive; negative”; (Test System: E.COLI, Strain/Indicator: WP2UVRA, Metabolic Activation: RAT LIVER S-9, PHENOBARBITAL AND BETA-NAPHTHOFLAVONE, Method: PREINCUBATION) “inactive; negative”.

The values above are taken from PubChem BioAssay AID1259407 (Chemical Carcinogenesis Research Information System (CCRIS), 2018).
